Where two headings read alike, the source gives them in different places.
Key:
HeLa S3 cells = assay: HeLa S3 Cell Growth Inhibition Test; type: cell-based; settings: Homo sapiens, 72 hours incubation, Neutral Red
Experimental: In each well of a 96-well microtiter plate was placed 0.1 mL of HeLa S3 cells having a concentration of 8×10^3 cells/mL and prepared in an MEM culture medium containing 10% fetal bovine serum and 2 mM glutamine. After the cells were incubated overnight at 37° C. in a carbon dioxide incubator, a test compound suitably diluted with a medium was added to the wells in an amount of 0.05 mL for each well. The cells were incubated at 37° C. for 72 hours in a carbon dioxide incubator. After the culture supernatant was removed, 0.1 mL of a culture medium containing 0.02% Neutral Red was added to each well. The cells were then incubated at 37° C. for 1 hour in a carbon dioxide incubator to dye the cells. After the culture supernatant was removed, each residue was rinsed once with physiological saline and the pigment was extracted with 0.001 N hydrochloric acid/30% ethanol. The absorbance at 550 nm of each extract was measured with a microplate reader. The drug concentration required for the 50% inhibition of cell growth, which is referred to as IC50, was calculated by comparing the absorbance for untreated cells with those for cells treated with the drug in known concentrations.

[1] = tested on: Sarcoma 180 mouse solid tumor; assay: Antitumor activity against Sarcoma 180 mouse solid tumor; type: in vivo, mouse (ddY); settings: Sarcoma-180, iv, 168 h
Experimental: To a ddY mouse were intraperitoneally transplanted 5×10^6 sarcoma 180 cells. On the seventh day from the transplant, the cells were collected from the ascites, washed once with sterilized physiological saline, and then diluted with sterilized physiological saline to prepare a cell suspension having a concentration of 5×10^7 cells/mL. This suspension was transplanted in an amount of 0.01 mL to a subcutaneous part of the right axilla of each of male ddY mice each weighing 20±1 g.
A test compound was dissolved in physiological saline containing polyoxyethylene sorbitan monolaurate. At 24 hours after the tumor transplant, 0.2 mL of the solution was intravenously administered to the tail of each of a group of five mice.

[2] = HeLa S3, 72 h, HeLa S3, read-out: IC50, HeLa S3 cell growth inhibition
[3] = HeLa S3, 72 h, read-out: IC50, HeLa S3 cell growth inhibition, HeLa S3
[4] = read-out: T/C (tumor volume ratio treated/control)
[5] = 8.0 mg/kg i.v. once, 24 hours after transplant, tumor volume on day 7, read-out: T/C (tumor volume ratio treated/control)
[6] = HeLa S3, read-out: IC50, HeLa S3 cell growth inhibition
[7] = 16 mg/kg i.v. once, 24 hours after transplant, tumor volume on day 7, read-out: T/C (tumor volume ratio treated/control)

Structure (SMILES)	IC50 (HeLa S3 cells; [2]) [nM]	response vs control in vivo at 16 mg/kg [1, 7] [%]	further results
CC(=O)Oc1cccc(C(=O)OCSC(=O)C(C)(O)C23CC/C(C)=C/C(OC4CCCCO4)C(=O)/C=C/C=C\c4csc(n4)C(C)N(C(=O)C2)[S+]3[O-])c1 (centres unmarked) [Compound 54]	15		response vs control in vivo at 4 mg/kg ([1]; 4.0 mg/kg i.v. once, 24 hours after transplant, tumor volume on day 7, read-out: T/C (tumor volume ratio treated/control)): 47%
C/C1=C\C(OC2CCCCO2)C(=O)/C=C/C=C\c2csc(n2)C(C)N2C(=O)CC(C(C)(O)C(=O)SCOC(=O)CCNC(=O)[C@@]34O[C@@H](CO)[C@@H](O)[C@@H]3OC(C)(C)O4)(CC1)[S+]2[O-] (some centres unmarked) [Compound 64]			IC50 (HeLa S3 cells; [3]): 35 nM; response vs control in vivo at 8 mg/kg [1, 4]: 43%
COCOCc1oc(=O)oc1CSC(=O)C(C)(O)C12CC/C(C)=C/C(OC3CCCCO3)C(=O)/C=C/C=C\c3csc(n3)C(C)N(C(=O)C1)[S+]2[O-] (centres unmarked) [Compound 78]	2.2		response vs control in vivo at 8 mg/kg [1, 5]: 50%
C/C1=C\C(O)C(=O)/C=C/C=C\c2csc(n2)C(C)N2C(=O)CC(C(C)(O)C(=O)SCc3oc(=O)oc3COC3C[C@H](O[Si](C)(C)C(C)(C)C)[C@@H](O[Si](C)(C)C(C)(C)C)[C@H](C)O3)(CC1)[S+]2[O-] (some centres unmarked) [Compound 79]			IC50 (HeLa S3 cells; [6]): 790 nM; response vs control in vivo at 8 mg/kg [1, 5]: 45%
C/C1=C\C(OC2CCCCO2)C(=O)/C=C/C=C\c2csc(n2)C(C)N2C(=O)CC(C(C)(O)C(=O)SCc3oc(=O)oc3CO)(CC1)[S+]2[O-] (centres unmarked) [Compound 87]			IC50 (HeLa S3 cells; [3]): 33 nM; response vs control in vivo at 16 mg/kg [1, 4]: 40%
C/C1=C\C(O)C(=O)/C=C/C=C\c2csc(n2)C(C)N2C(=O)CC(C(C)(O)C(=O)SCc3oc(=O)oc3COC=O)(CC1)[S+]2[O-] (centres unmarked) [Compound 88]			IC50 (HeLa S3 cells; [3]): 320 nM; response vs control in vivo at 8 mg/kg [1, 4]: 49%
C/C1=C\C(OC2CCCCO2)C(=O)/C=C/C=C\c2csc(n2)C(C)N2C(=O)CC(C(C)(O)C(=O)SCc3oc(=O)oc3COC(=O)c3cnc4ccccc4n3)(CC1)[S+]2[O-] (centres unmarked) [Compound 94]			IC50 (HeLa S3 cells; [3]): 33 nM; response vs control in vivo at 8 mg/kg [1, 4]: 43%
CC(=O)NCC(=O)OCc1oc(=O)oc1CSC(=O)C(C)(O)C12CC/C(C)=C/C(OC3CCCCO3)C(=O)/C=C/C=C\c3csc(n3)C(C)N(C(=O)C1)[S+]2[O-] (centres unmarked) [Compound 98]	70	40	
COCCOCC(=O)OCc1oc(=O)oc1CSC(=O)C(C)(O)C12CC/C(C)=C/C(O)C(=O)/C=C/C=C\c3csc(n3)C(C)N(C(=O)C1)[S+]2[O-] (centres unmarked) [Compound 99]	87		response vs control in vivo at 8 mg/kg [1, 5]: 40%
COCCOCCOCC(=O)OCc1oc(=O)oc1CSC(=O)C(C)(O)C12CC/C(C)=C/C(O)C(=O)/C=C/C=C\c3csc(n3)C(C)N(C(=O)C1)[S+]2[O-] (centres unmarked) [Compound 101]	100	27	
COCCOCCOCC(=O)OCc1oc(=O)oc1CSC(=O)C(C)(O)C12CC/C(C)=C/C(OC3CCCCO3)C(=O)/C=C/C=C\c3csc(n3)C(C)N(C(=O)C1)[S+]2[O-] (centres unmarked) [Compound 102]	38	46	
C=C(CSC(=O)C(C)(O)C12CC/C(C)=C/C(OC3CCCCO3)C(=O)/C=C/C=C\c3csc(n3)C(C)N(C(=O)C1)[S+]2[O-])C(=O)OC (centres unmarked) [Compound 112]	64		response vs control in vivo at 8 mg/kg [1, 5]: 24%
COC1(OC2/C=C(\C)CCC3(C(C)(O)C(=O)SCC4=C(C)OC(C)(C)OC4=O)CC(=O)N(C(C)c4nc(cs4)/C=C\C=C\C2=O)[S+]3[O-])CCOCC1 (centres unmarked) [Compound 122]	1800	37	
CC1=C(CSC(=O)C(C)(O)C23CC/C(C)=C/C(OC4CCCCO4)C(=O)/C=C/C=C\c4csc(n4)C(C)N(C(=O)C2)[S+]3[O-])C(=O)OC(C)(C)O1 (centres unmarked) [Compound 123]	600	14	
CC1=C(CSC(=O)C(C)(O)C23CC/C(C)=C/C(OC4CCCCO4)C(=O)/C=C/C=C\c4csc(n4)C(C)N(C(=O)C2)[S+]3[O-])C(=O)OC2(CCOCC2)O1 (centres unmarked) [Compound 125]	47	43	
CCOC(=O)N1CCC2(CC1)OC(=O)C(CSC(=O)C(C)(O)C13CC/C(C)=C/C(OC4CCCCO4)C(=O)/C=C/C=C\c4csc(n4)C(C)N(C(=O)C1)[S+]3[O-])=C(C)O2 (centres unmarked) [Compound 127]		29	IC50 (HeLa S3 cells; [6]): 33 nM
